Where two headings read alike, the source gives them in different places.
Key:
MCF-7/ADR = assay: Sulforhodamine B growth inhibition, breast MCF-7/ADR; assay type: cell-based, human; details: 48 h, SRB, read-out: GROWTH INHIBITION (GI 50)
Protocol: (§1) Each test compound was screened against a battery of cell lines representing eight different types of cancers. In a typical procedure, 1×10^4 cells were seeded into each well of 96 well plate in 100 μL volume of RPMI 1640 medium containing antibiotics and 10% FCS.
(§2) The plates were incubated at 37° C. in presence of CO2. After 24 h, test compounds were evaluated at five 10 fold dilutions ranging from 100 to 0.01 μM. To each test well 100 μL of test compound solution was added and medium with vehicle was added to control wells and the plates were further incubated. After 48 h of incubation, plates were terminated by Sulforhodamine B method.
(§3) The optical density which is proportional to protein mass, is then read by automated spectrophotometric plate reader at a wavelength of 515 nm.

MCF7 = assay: Sulforhodamine B growth inhibition, breast MCF7; assay type: cell-based, human; details: Homo sapiens, 48 h, SRB, read-out: GROWTH INHIBITION (GI 50)
Protocol: as §1, §2, §3

U251 = assay: Sulforhodamine B growth inhibition, CNS U251; assay type: cell-based, human; details: SRB, read-out: GROWTH INHIBITION (GI 50)
Protocol: as §1, §2, §3

SW-620 = assay: Sulforhodamine B growth inhibition, colon SW-620; assay type: cell-based, human; details: 48 h, SRB, read-out: GROWTH INHIBITION (GI 50)
Protocol: as §1, §2, §3

HT29 = assay: Sulforhodamine B growth inhibition, colon HT29; assay type: cell-based, human; details: Homo sapiens, HT-29, 48 h, SRB, read-out: GROWTH INHIBITION (GI 50)
Protocol: as §1, §2, §3

H522 = assay: Sulforhodamine B growth inhibition, lung H522; assay type: cell-based, human; details: SRB, read-out: GROWTH INHIBITION (GI 50)
Protocol: as §1, §2, §3

UACC62 = assay: Sulforhodamine B growth inhibition, melanoma UACC62; assay type: cell-based, human; details: Homo sapiens, UACC-62, 48 h, SRB, read-out: GROWTH INHIBITION (GI 50)
Protocol: as §1, §2, §3

SKOV-3 = assay: Sulforhodamine B growth inhibition, ovarian SKOV-3; assay type: cell-based, human; details: SRB, read-out: GROWTH INHIBITION (GI 50)
Protocol: as §1, §2, §3

DU145 = assay: Sulforhodamine B growth inhibition, prostate DU145; assay type: cell-based, human; details: SRB, read-out: GROWTH INHIBITION (GI 50)
Protocol: as §1, §2, §3

PC-3 = assay: Sulforhodamine B growth inhibition, prostate PC-3; assay type: cell-based, human; details: Homo sapiens, 48 h, SRB, read-out: GROWTH INHIBITION (GI 50)
Protocol: as §1, §2, §3

ACHN = assay: Sulforhodamine B growth inhibition, renal ACHN; assay type: cell-based; details: Homo sapiens, 48 h, SRB, read-out: GROWTH INHIBITION (GI 50)
Protocol: as §1, §2, §3

KB = KB cells; cited from earlier work
[1] = system: P388 lymphocytic leukemia; details: P388 cells; cited from earlier work
HIV-1/MN = assay: Anti HIV activity in PM-1 cells (P24 ELISA, MTT corrected); assay type: cell-based; details: 1 μM; PM-1 cells infected with HIV-1/MN, 96 h, P24 antigen corrected by MTT
Protocol: Human CD^4+ T cell line PM-1 used in the assay was cultured in RPMI-1640 medium containing 10% Fetal bovine serum, 2 g/L sodium bicarbonate, 100,000 units/L Pencillin-G and 100 mg/L streptomycin. Healthy PM-1 cells were plated on the first day in a 96 well plate at 2×10^6 cells per well. After 24 h HIV-1/MN was added to the culture and incubated for 2 h for infection. Cells were washed twice with PBS to remove the virus in the culture. Different concentrations of DRF compounds ranging from 10−^4 to 10^−8 M were added to the culture and incubated for 96 h. The viability of cells was then assessed by standard MTT assay and the viral antigen P24 levels were estimated by ELISA method. Based on the MTT assay values the P 24 antigen values were corrected.
All the samples were tested in triplicates and the average was used for calculations. AZT was used as standard compound for comparision.

M14 = assay: Sulforhodamine B growth inhibition, melanoma M14; assay type: cell-based, human; details: 48 h, SRB, read-out: GROWTH INHIBITION (GI 50)
Protocol: as §1, §2, §3

A498 = assay: Sulforhodamine B growth inhibition, renal A498; assay type: cell-based, human; details: 48 h, SRB, read-out: GROWTH INHIBITION (GI 50)
Protocol: as §1, §2, §3

PA1 = assay: Sulforhodamine B growth inhibition, ovarian PA1; assay type: cell-based, human; details: Homo sapiens, PA-1, 48 h, SRB, read-out: GROWTH INHIBITION (GI 50)
Protocol: as §1, §2, §3

HIV-1 (EIB) = details: cited from earlier work

| Compound | GI50 (MCF-7/ADR; Homo sapiens, NCI/ADR-RES) [µM] | GI50 (MCF7) [µM] | GI50 (U251; Homo sapiens, U-251, 48 h) [µM] | GI50 (SW-620; Homo sapiens) [µM] | GI50 (HT29) [µM] | GI50 (H522; Homo sapiens, NCI-H522, 48 h) [µM] | GI50 (UACC62) [µM] | GI50 (SKOV-3; Homo sapiens, SK-OV-3, 48 h) [µM] | GI50 (DU145; Homo sapiens, DU-145, 48 h) [µM] | GI50 (PC-3) [µM] | GI50 (ACHN) [µM] | melting point [°C] | also measured |
| --- | --- | --- | --- | --- | --- | --- | --- | --- | --- | --- | --- | --- | --- |
| C=C1CCC2[C@](C)(CO)[C@H](O)CC[C@]2(C)[C@H]1C/C=C1/C(=O)OC[C@H]1OCc1ccccc1 (stereo partly drawn) [Example 15, 14-Benzyl andrographolide] | 20 | 6 | 40 | 3.5 | 3.5 | 12 | 3.5 | 3 | 4 | 2 | 4 | 141 |  |
| C=C1CC[C@@H]2[C@](C)(CO)[C@H](O)CC[C@@]2(C)[C@@H]1C/C=C1/C(=O)OC[C@H]1O [Andrographolide] |  |  |  |  |  |  |  |  |  |  |  |  | cytotoxic activity (KB): potent cytotoxic activity; cytotoxic activity [1]: potent cytotoxic activity |
| Cc1cn([C@H]2C[C@H](N=[N+]=[N-])[C@@H](CO)O2)c(=O)[nH]c1=O [AZT, reference compound] |  |  |  |  |  |  |  |  |  |  |  |  | Percentage Inhibition (HIV-1/MN): 72.47% |
| C=C1CCC2[C@](C)(CO)[C@H](O)CC[C@]2(C)[C@H]1C/C=C1/C(=O)OC[C@H]1OC(=O)Nc1ccccc1 (stereo partly drawn) [Example 9, 14-phenylcarbamoyl andrographolide] | 0.4 | 2.5 | 6.5 | 2.5 | 4 | 12 | 3 | 3 | 6 | 3 | 5 | 120 |  |
| C=C1CC[C@@H]2[C@](C)(COC(C)=O)[C@H](OC(C)=O)CC[C@@]2(C)[C@@H]1C/C=C1/C(=O)OC[C@H]1OC(=O)C(O)C(NC(=O)c1ccccc1)c1ccccc1 (stereo partly drawn) [Example 18, 3,19-Diacetyl-14-(2′hydroxy-3′-benzoylamino 3′-phenyl)propionyl andrographolide] |  |  |  |  |  |  |  |  |  |  |  |  | GI50 (MCF-7/ADR): 8 µM; GI50 (U251; 48 h): 8 µM; GI50 (SW-620): 5 µM; GI50 (H522; 48 h): 20 µM; GI50 (M14): 3 µM; GI50 (SKOV-3; 48 h): 4 µM; GI50 (DU145; 48 h): 3 µM; GI50 (A498): 10 µM |
| C=C1CCC2[C@]3(C)COC(C)(c4ccccc4)O[C@@H]3CC[C@]2(C)[C@H]1C/C=C1/C(=O)OC[C@H]1O (stereo partly drawn) [Example 3, 3,19-(1-Phenylethylidene)andrographolide] | 2 | 12 | 2 | 5 | 2 | 12 | 3 | 5 |  |  |  | 201 to 203 | GI50 (PA1): 19 µM; GI50 (A498; Homo sapiens): 3 µM |
| C=C1CC[C@@H]2[C@](C)(COC(C)=O)[C@H](OC(C)=O)CC[C@@]2(C)[C@@H]1C/C=C1/C(=O)OC[C@H]1OC(=O)CNC(C)=O [Example 22, 14-(N-acetyl-glycinyl)-3,19-diacetyl andrographolide] |  |  |  |  |  |  |  |  |  |  |  |  | GI50 (MCF-7/ADR): 8 µM; GI50 (U251; 48 h): 1.5 µM; GI50 (SW-620): 5 µM; GI50 (H522; 48 h): 20 µM; GI50 (M14): 9.5 µM; GI50 (SKOV-3; 48 h): 30 µM; GI50 (DU145; 48 h): 8 µM; GI50 (A498): 25 µM |
| C=C1CC[C@@H]2[C@]3(C)COC(C)(C)O[C@@H]3CC[C@@]2(C)[C@@H]1C/C=C1/C(=O)OC[C@H]1O [Example 1, 3,19-isopropylidene andrographolide] | 2 | 13 | 4 | 5 | 2 | 14 | 4 | 8 |  |  |  | 194.5 | GI50 (PA1): 2 µM; GI50 (A498; Homo sapiens): 13 µM |
| C=C1CCC2[C@](C)(CO)[C@H](O)CC[C@]2(C)[C@H]1C/C=C1/C(=O)OC[C@H]1OC(=O)c1ccccc1 (stereo partly drawn) [Example 14, 14-Benzoyl andrographolide] | 3.5 | 10 | 1.5 | 3 | 4 | 7.5 | 3 | 3.5 | 6 | 2 | 5 | 85.5 to 87 |  |
| dehydroandrographolide succinic acid monoester [DASM] |  |  |  |  |  |  |  |  |  |  |  |  | minimal concentration inhibitory to HIV-1 (EIB) (HIV-1 (EIB)): 1.6 to 3.1 µg/mL |
